Laboratory results taken from US20250145622A1, “SOLID FORMS OF A TRIAZINE DERIVATIVE AS CBL-B MODULATOR” (HOTSPOT THERAPEUTICS, INC., priority 2022, published 2025).
Values after ≈ are worked out from the molar mass of the structure shown. “Also recorded” adds a separate entry of the source. Where two headings read alike, the source gives them in different places.

Tests used:
Format in all cases: physicochemical
[1] = Solubility determination by solvent addition (visual assessment); conditions: thermodynamic from solid
Procedure: Aliquots of various solvents were added to measured amounts of the anhydrous crystalline form of the compound of formula (I) at various temperatures with sonication or stirring. Solubilities were calculated based on the total solvent used to give a solution; actual solubilities may be greater because of the volume of solvent portions utilized or a slow rate of dissolution. […] If dissolution occurred at the first aliquot the value was reported as “>”.

[2] = Dynamic vapor sorption (DVS), water sorption isotherm
Procedure: Vapor sorption data were collected on a Surface Measurement System DVS Intrinsic instrument. Samples were not dried prior to analysis. Sorption and desorption data were collected over a range from 5% to 95% RH at 10% RH increments under a nitrogen purge. The equilibrium criterion used for analysis was less than 0.0100% weight change in 5 minutes with a maximum equilibration time of 3 hours.

[3] = as above; remark: listed apart in the source

## C[C@H]1CCCN(Cc2cc(C(F)(F)F)c3cn(-c4cccc([C@H](c5nncn5C)C5CCC5)c4)c(=O)n3c2)C1
[1]; water, 25° C., by solvent addition, read-out: aqueous solubility
  solubility: > 111 mg/mL

## C[C@H]1CCCN(Cc2cc(C(F)(F)F)c3cn(-c4cccc([C@H](c5nncn5C)C5CCC5)c4)c(=O)n3c2)C1 [2-(3-((R)-cyclobutyl(4-methyl-4H-1,2,4-triazol-3-yl)methyl)phenyl)-6-(((S)-3-methylpiperidin-1-yl)methyl)-8-(trifluoromethyl)imidazo[1,5-a]pyridin-3(2H)-one]
[1]; aqueous with cosolvent or surfactant or cyclodextrin, solvent Water/EtOH (20/80 v/v), read-out: Solubility
  solubility: > 29 mg/mL
[1]; aqueous with cosolvent or surfactant or cyclodextrin, solvent Water/EtOH (40/60 v/v), read-out: Solubility
  solubility: > 36 mg/mL
[1]; aqueous with cosolvent or surfactant or cyclodextrin, solvent Water/EtOH (50/50 v/v), read-out: Solubility
  solubility: 9 mg/mL (≈ 16.7 mM)
[1]; aqueous with cosolvent or surfactant or cyclodextrin, solvent Water/EtOH (60/40 v/v), read-out: Solubility
  solubility: < 4 mg/mL
[1]; aqueous with cosolvent or surfactant or cyclodextrin, solvent Water/IPA (20/80 v/v), read-out: Solubility
  solubility: > 30 mg/mL
[1]; aqueous with cosolvent or surfactant or cyclodextrin, solvent Water/IPA (40/60 v/v), read-out: Solubility
  solubility: > 37 mg/mL
[1]; aqueous with cosolvent or surfactant or cyclodextrin, solvent Water/IPA (60/40 v/v), read-out: Solubility
  solubility: 9 mg/mL (≈ 16.7 mM)
[1]; aqueous with cosolvent or surfactant or cyclodextrin, solvent Water/MeOH (20/80 v/v), read-out: Solubility
  solubility: > 29 mg/mL
[1]; aqueous with cosolvent or surfactant or cyclodextrin, solvent Water/MeOH (40/60 v/v), read-out: Solubility
  solubility: 7 mg/mL (≈ 13 mM)
[1]; aqueous with cosolvent or surfactant or cyclodextrin, solvent Water/MeOH (60/40 v/v), read-out: Solubility
  solubility: < 3 mg/mL
[1]; organic solvent or mixture, solvent ACN, read-out: Solubility
  solubility: 85 mg/mL (≈ 158 mM)
[1]; organic solvent or mixture, solvent Acetone, read-out: Solubility
  solubility: 31 mg/mL (≈ 57.6 mM)
[1]; organic solvent or mixture, solvent DCM, read-out: Solubility
  solubility: > 100 mg/mL
[1]; organic solvent or mixture, solvent DIPE, read-out: Solubility
  solubility: < 2 mg/mL
[1]; organic solvent or mixture, solvent EtOAc, read-out: Solubility
  solubility: 38 mg/mL (≈ 70.6 mM)
[1]; organic solvent or mixture, solvent EtOH, read-out: Solubility
  solubility: 99 mg/mL (≈ 184 mM)
[1]; organic solvent or mixture, solvent Heptane, read-out: Solubility
  solubility: < 1 mg/mL
[1]; organic solvent or mixture, solvent IPA, read-out: Solubility
  solubility: 79 mg/mL (≈ 147 mM)
[1]; organic solvent or mixture, solvent MTBE, read-out: Solubility
  solubility: 4 mg/mL (≈ 7.43 mM)
[1]; organic solvent or mixture, solvent MeOH, read-out: Solubility
  solubility: 91 mg/mL (≈ 169 mM)
[1]; organic solvent or mixture, solvent THF, read-out: Solubility
  solubility: 95 mg/mL (≈ 176 mM)
[1]; organic solvent or mixture, solvent Toluene, read-out: Solubility
  solubility: 99 mg/mL (≈ 184 mM)
[1]; solvent Water, read-out: Solubility
  solubility: < 1 mg/mL
[2]; after DVS
  XRPD analysis on the post-DVS sample (solid form): amorphous
[2]; desorption step
  hysteresis on desorption: very minor hysteresis; also recorded: Significant hysteresis
[2]; from 5% to 74% RH
  weight gain: 1.2 % wt.
[2]; from 5 to 95% RH
  water taken up during sorption: 0.1 moles of water per mole of API
[2]; from 5 to 95% relative humidity (RH)
  weight gain during the sorption step: 0.4%
[2]; upon desorption
  appearance of sample after DVS: signs of partial deliquescence
[2]; water sorption isotherm, Ph. Eur. 10.0 classes
  hygroscopicity classification: slightly hygroscopic
[3]; 5% to 96% RH
  total water gained: 7.6 moles of water
  total weight gained: 15.8%
[3]; from 75% to 96% RH
  weight gain: 14.6 % wt.
